{
  "source": "patent US12208092B2",
  "about": "“Compositions and methods for administering paltusotine to patients with hepatic impairment” (CRINETICS PHARMACEUTICALS, INC., priority 2023, dated 2025)",
  "key": {"plasma GH": {"system": "plasma GH", "test": "suppression of plasma GH after rGHRH challenge in rat", "format": "in vivo", "description": "(§1) The in vivo pharmacological efficacy of paltusotine has been examined in rat and dog. In the rat, acute efficacy was evaluated by examining the suppression of plasma GH in response to a challenge with rat growth hormone releasing hormone (rGHRH). […] The effects of chronic, oral, 14-day administration of paltusotine were evaluated by measuring the sustained suppression of IGF-1 in the rat."}, "plasma IGF-1": {"system": "plasma IGF-1", "test": "chronic oral 14-day administration, suppression of IGF-1 in rat", "format": "in vivo", "description": "as §1"}, "IGF-1": {"system": "IGF-1", "test": "suppression of IGF-1 in Beagle dogs, 7 days oral", "format": "in vivo"}, "[1]": {"test": "Phase 1 mass balance (ADME) study, single oral 20 mg [14C]-paltusotine, healthy male volunteers", "format": "in vivo, human", "description": "This was a Phase I, open-label, single-dose study with a primary objective to characterize the absorption, distribution, metabolism, excretion, and mass balance of a single oral dose of 20 mg paltusotine containing 3.0 MBq (80 μCi) of [^14C]-labeled paltusotine in healthy male subjects.\nSubjects received a single oral dose of 20 mg paltusotine as an oral solution containing 3.0 MBq (80 μCi) of radioactivity on Day 1. For oral dosing, the total volume ingested by the subject, including the study drug (10 mL), the rinse solutions (a total of 100 mL; 2 drug vial rinses with 50 mL of water per rinse), and tap water (130 mL), was 240 mL. The subjects had to ingest all solutions in the upright position within 2 minutes between 8 AM and 11 AM after an overnight fast of at least 10 hours. Fasting continued for a period of 4 hours after oral drug administration. The time of oral dosing administration was recorded, and the empty study drug vials were measured for residual radioactivity.\nBlood samples were taken for the analysis of unlabeled paltusotine and [^14C]-paltusotine concentrations, and metabolite profiling. Blood samples for analysis of pharmacokinetic parameters of paltusotine in plasma, quantification of total radioactivity in blood and plasma, and metabolite profiling were collected at predose and 0.25, 0.5, 0.75, 1, 1.5, 2, 3, 4, 8, 12, 24, 48, 72, 120, and 168 hours postdose (and every 48 hours thereafter, if needed, to assess radioactivity).\nUrine was collected for the analysis of total radioactivity, for quick counts of total radioactivity, and for metabolite profiling. The subjects were instructed to urinate completely before study drug administration and at the end of each collection interval. A baseline urine sample was collected within 12 hours prior to each study drug administration. Urine was collected for quantification of total radioactivity and metabolite profiling at predose, 3 intervals on Day 1 (at 0-4, 4-8, and 8-24 hours postdose), and every 24 hours thereafter until discharge criteria were met.\nAll fecal excretions were collected for the analysis of total radioactivity, for quick counts of total radioactivity, and for metabolite profiling. A baseline fecal sample was collected within 48 hours prior to study drug administration and could be collected at home. The baseline sample was taken from the last bowel movement before study drug intake. Feces were collected for quantification of total radioactivity and metabolite profiling at predose and in 24-hour intervals until discharge criteria were met.\nAnalysis of paltusotine in plasma was performed by Q2 Solutions (IQVIA, Itaca, NY, USA) using a validated liquid chromatography-tandem mass spectrometry (LC-MS/MS) method. The lower limit of quantitation (LLOQ) for paltusotine in plasma was 0.5 ng/mL.\nAnalysis of total ^14C radioactivity in plasma, whole blood, urine, and feces was performed at the bioanalytic laboratory of PRA Heath Sciences via a validated liquid scintillation counting method. The LLOQ for total reactivity was 3.36 ng-eq/mL in plasma and 5.6 ng-eq/mL in whole blood.\nMetabolite profiling of plasma, urine, and feces was performed at WuXi AppTec (Cranbury, NJ, USA). For plasma, samples were pooled by timepoint (0.5, 1, 1.5, 2, 4, 8, 12, and 24 hours postdose) for metabolite profiling. In addition, plasma samples were pooled by participant across timepoints (0-48 hours) using the Hamilton method and analyzed to determine the quantitative profile of radiolabeled components. Prior to radio-profiling, plasma samples were extracted using solid phase extraction.\nFor urine and feces, samples were pooled by timepoint (0-8, 8-24, and 24-72 hours postdose). Prior to radio-profiling, urine samples were centrifuged to remove solids, and fecal homogenates were extracted with acetonitrile. Plasma and fecal extracts and urine supernatants were subjected to LC separation and fraction collection. […]"}, "[2]": {"target": "human somatostatin receptor 2 (SST2) (Homo sapiens, UniProt P30874)", "sequence (P30874 whole entry)": "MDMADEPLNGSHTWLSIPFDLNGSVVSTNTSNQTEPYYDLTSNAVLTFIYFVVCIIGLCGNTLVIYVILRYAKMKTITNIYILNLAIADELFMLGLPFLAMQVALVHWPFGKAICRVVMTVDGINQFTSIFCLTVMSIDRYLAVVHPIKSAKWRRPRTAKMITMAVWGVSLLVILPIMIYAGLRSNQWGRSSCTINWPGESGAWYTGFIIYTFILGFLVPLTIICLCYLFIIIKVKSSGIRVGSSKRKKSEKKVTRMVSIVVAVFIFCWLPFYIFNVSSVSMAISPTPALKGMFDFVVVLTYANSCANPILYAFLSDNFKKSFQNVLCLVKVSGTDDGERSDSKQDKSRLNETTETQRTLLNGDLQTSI", "conditions": "read-out: EC50, inhibition of cAMP accumulation via SST2 activation; average, in vitro"}, "[3]": {"system": "other human somatostatin receptors"}, "[4]": {"system": "large panel of other known receptors, channels, and enzymes"}, "[5]": {"conditions": "scaled from paltusotine and excretory metabolites"}},
  "data": [
    {"molecule": "N#Cc1cccc(-c2ccc3ncc(-c4cc(F)cc(F)c4)c(N4CCC(N)CC4)c3c2)c1O", "note": "[paltusotine, 3-[4-(4-amino-1-piperidyl)-3-(3,5-difluorophenyl)-6-quinolyl]-2-hydroxybenzonitrile]", "values": [
      {"measurement": "EC50", "setting": "plasma GH; Rattus norvegicus, po, read-out: plasma EC50 for GH suppression", "result": 0.011, "unit": "µg/mL"},
      {"measurement": "doses that significantly and dose dependently suppressed GH relative to vehicle", "setting": "plasma GH; oral, acute, rGHRH challenge", "result": "≥ 3", "unit": "mg/kg"},
      {"measurement": "dose efficacious in suppressing plasma IGF-1 for up to 14 days", "setting": "plasma IGF-1", "result": "> 10", "unit": "mg/kg/day"},
      {"measurement": "oral doses with sustained suppression of IGF-1", "setting": "IGF-1", "result": "≥ 6", "unit": "mg/kg/day"},
      {"measurement": "component in feces", "setting": "[1]; feces", "result": "39.7 % of the dose"},
      {"measurement": "drug-related components detected in plasma", "setting": "[1]; human plasma 0-48 h", "result": "the only drug-related component detected in human plasma (0-48 h) was paltusotine"},
      {"measurement": "administered radioactivity recovered in the feces", "setting": "[1]; human, in vivo", "result": 90, "unit": "%"},
      {"measurement": "administered radioactivity recovered in the urine", "setting": "[1]; human, in vivo", "result": 3.9, "unit": "%"},
      {"measurement": "dose excreted in the feces by metabolic profiling of excreta", "setting": "[1]; human, in vivo", "result": "approximately 84%"},
      {"measurement": "total radioactivity excreted over 120 h", "setting": "[1]; human, in vivo", "result": "88 % of the administered dose"},
      {"measurement": "glucuronidation pathway share of metabolic clearance", "setting": "[1]; [5]", "result": "27.9 % of the dose"},
      {"measurement": "oxidative route share of metabolic clearance", "setting": "[1]; [5]", "result": 14.3, "unit": "%"},
      {"measurement": "component in urine", "setting": "[1]; urine", "result": "1.33 % of dose"},
      {"measurement": "unchanged paltusotine and metabolites excreted in urine", "setting": "[1]; urine", "result": "< 4 % of the total administered radioactivity"},
      {"measurement": "total mean recovery of administered radioactivity", "setting": "[1]; urine and feces", "result": 94, "unit": "%"},
      {"measurement": "EC50", "setting": "[2]", "result": 250, "unit": "pM"},
      {"measurement": "selectivity over other human somatostatin receptors", "setting": "[3]", "result": "> 4000", "unit": "fold"},
      {"measurement": "selectivity for SST2 over panel of other receptors, channels, and enzymes", "setting": "[4]", "result": "> 2000", "unit": "fold"}
    ]}
  ]
}
